Values quoted from earlier work in US20170007618A1, “SEROTONIN 2C RECEPTOR ANTAGONISTS TO PREVENT AND TREAT STRESS-RELATED TRAUMA DISORDERS” (Massachusetts Institute of Technology, priority 2015, published 2017).
Where a name gives a salt, the structure may show the parent alone.

What was measured:
5-HT2B receptors = 5-HT2B receptors (Homo sapiens, UniProt P41595); settings: 5-HT2C versus 5-HT2B
5-HT2A receptors = 5-HT2A receptors (Homo sapiens, UniProt P28223); settings: 5-HT2C versus 5-HT2A
[1] = molecular target: T1, cloned human 5-HT2C receptor (Homo sapiens, UniProt P28335)
T1 sequence (P28335 33-458): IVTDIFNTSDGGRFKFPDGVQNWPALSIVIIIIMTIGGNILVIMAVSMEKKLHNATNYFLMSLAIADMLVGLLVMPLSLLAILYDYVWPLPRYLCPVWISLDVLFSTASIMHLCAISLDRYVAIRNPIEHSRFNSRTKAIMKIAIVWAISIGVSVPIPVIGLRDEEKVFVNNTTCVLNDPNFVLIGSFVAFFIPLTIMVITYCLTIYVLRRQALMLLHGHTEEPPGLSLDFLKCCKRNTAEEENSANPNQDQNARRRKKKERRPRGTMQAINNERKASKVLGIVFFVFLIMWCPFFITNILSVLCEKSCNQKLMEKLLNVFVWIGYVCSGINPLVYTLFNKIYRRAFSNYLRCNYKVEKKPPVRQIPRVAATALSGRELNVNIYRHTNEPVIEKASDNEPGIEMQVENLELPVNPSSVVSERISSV

5-HT2A receptors, sequence (P28223 whole entry): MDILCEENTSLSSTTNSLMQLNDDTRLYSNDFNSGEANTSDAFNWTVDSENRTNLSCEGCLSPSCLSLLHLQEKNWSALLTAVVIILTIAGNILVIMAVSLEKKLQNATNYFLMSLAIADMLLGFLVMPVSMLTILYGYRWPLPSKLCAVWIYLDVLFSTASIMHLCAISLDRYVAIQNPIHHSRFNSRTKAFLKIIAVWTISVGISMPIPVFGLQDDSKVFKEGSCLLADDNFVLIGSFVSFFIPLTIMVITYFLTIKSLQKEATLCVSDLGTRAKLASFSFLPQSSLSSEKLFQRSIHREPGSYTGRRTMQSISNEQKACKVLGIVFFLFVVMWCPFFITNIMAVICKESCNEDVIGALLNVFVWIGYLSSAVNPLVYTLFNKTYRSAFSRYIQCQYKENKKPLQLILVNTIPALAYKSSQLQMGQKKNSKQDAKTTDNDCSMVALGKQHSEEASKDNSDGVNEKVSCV
5-HT2B receptors, sequence (P41595 whole entry): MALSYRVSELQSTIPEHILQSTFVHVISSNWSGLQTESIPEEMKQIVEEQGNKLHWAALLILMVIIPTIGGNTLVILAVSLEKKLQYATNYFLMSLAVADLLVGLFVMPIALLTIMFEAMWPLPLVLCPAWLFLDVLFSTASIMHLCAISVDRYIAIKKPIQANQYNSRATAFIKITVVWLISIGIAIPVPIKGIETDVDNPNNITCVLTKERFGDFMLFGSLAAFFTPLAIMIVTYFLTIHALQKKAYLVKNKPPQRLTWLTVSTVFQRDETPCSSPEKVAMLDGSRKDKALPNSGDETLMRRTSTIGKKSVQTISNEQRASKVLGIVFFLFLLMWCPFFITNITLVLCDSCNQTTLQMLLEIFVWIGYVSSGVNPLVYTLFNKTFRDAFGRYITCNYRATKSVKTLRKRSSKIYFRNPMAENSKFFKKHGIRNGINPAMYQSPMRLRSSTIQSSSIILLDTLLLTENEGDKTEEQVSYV

In the case of `Cc1cc2c(cc1Cl)N(C(=O)Nc1ccc(Oc3cccnc3C)nc1)CC2` [SB 242084, 6-chloro-5-methyl-N-{6-[(2-methylpyridin-3-yl)oxy]pyridin-3-yl}indoline-1-carboxamide], the “selectivity over 5-HT2B receptors” value (5-HT2B receptors) is given as 100 fold and the “selectivity over 5-HT2A receptors” value (5-HT2A receptors) is given as 158 fold.

In the case of `Cl.Cn1ccc2cc(NC(=O)Nc3cccnc3)ccc21` [SB 200646A, N-(1-methyl-5-indolyl)-N′-(3-pyridyl) urea hydrochloride], the pKi [1] is listed as 6.9.

For `COc1cc(OC)c(C(=O)CCCCN2CCC3(CC2)NC(=O)NC3=O)cc1NS(=O)(=O)c1ccc(C(F)(F)F)cc1` [RS 102221, 8-[5-(2,4-Dimethoxy-5-(4-trifluoromethylphenylsulphonamido)phenyl-5-oxopentyl]-1,3,8-triazaspiro[4.5]decane-2,4-dione hydrochloride], the “selectivity over 5-HT2B receptors” value (5-HT2B receptors) is given as 100 fold and the “selectivity over 5-HT2A receptors” value (5-HT2A receptors) is given as 100 fold.
